# Data: patent US20240173307A1, “MODULATORS OF THE INTEGRATED STRESS PATHWAY” (Calico Life Sciences LLC, priority 2017, published 2024)
# System: HEK293T cells carrying the ATF4 luciferase reporter
# Assay: ATF4-Luc assay (in vitro model of vanishing white matter disease)
# Type: cell-based
# Details: Homo sapiens, HEK-293T, 1 μg/mL tunicamycin, 7 hours
# Outline: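 Stable HEK293T line expressing firefly luciferase behind the human full-length ATF4 5′-UTR, grown in DMEM/10% FBS. Cells were co-treated with 1 μg/mL tunicamycin and 200 nM compound for 7 h. Luciferase luminescence was read as the output, and EC50 values were derived from it.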
row,Structure (SMILES),EC50 [nM]
1,"O=C(COc1ccc(Cl)c(F)c1)NC12CCC(C(=O)NCc3nc4cc(F)c(F)cc4[nH]3)(CC1)CC2 [Compound 324, 4-[2-(4-chloro-3-fluorophenoxy)acetamido]-N-[(5,6-difluoro-1H-benzimidazol-2-yl)methyl]bicyclo[2.2.2]octane-1-carboxamide]",< 250
2,"O=C(COc1ccc(Cl)c(Cl)c1)NC12CC(C(=O)Nc3cccnc3)(C1)C2 [Compound 295, 3-[2-(3,4-dichlorophenoxy)acetamido]-N-(pyridin-3-yl)bicyclo[1.1.1]pentane-1-carboxamide]",< 250
3,"COc1ccc(NC(=O)C23CC(NC(=O)COc4ccc(Cl)c(F)c4)(C2)C3)nc1 [Compound 303, 3-[2-(4-chloro-3-fluorophenoxy)acetamido]-N-(5-methoxypyridin-2-yl)bicyclo[1.1.1]pentane-1-carboxamide]",250 to 500
4,"O=C(COc1ccc(Cl)c(F)c1)NC12CC(C(=O)N(CCO)Cc3ccc(Cl)c(F)c3)(C1)C2 [Compound 343, 3-[2-(4-chloro-3-fluorophenoxy)acetamido]-N-[(4-chloro-3-fluorophenyl)methyl]-N-(2-hydroxyethyl)bicyclo[1.1.1]pentane-1-carboxamide]",1000 to 2000
5,"O=C(COc1ccc(Cl)c(Cl)c1)NC12CCC(C(=O)NCc3ccc(C(F)(F)F)cc3)(CC1)[C@H](O)C2 (single isomer, unassigned) [Compound 263]",< 250
6,"N#Cc1ccc(NC(=O)C23CC(NC(=O)COc4ccc(Cl)c(F)c4)(C2)C3)nc1 [Compound 305, 3-[2-(4-chloro-3-fluorophenoxy)acetamido]-N-(5-cyanopyridin-2-yl)bicyclo[1.1.1]pentane-1-carboxamide]",< 250
7,"O=C(COc1ccc(Cl)c(F)c1)NC12CCC(C(=O)NCc3ccc(OC(F)F)cn3)(CC1)CC2 [Compound 265, 4-[2-(4-chloro-3-fluorophenoxy)acetamido]-N-{[5-(difluoromethoxy)pyridin-2-yl]methyl}bicyclo[2.2.2]octane-1-carboxamide]",< 250
8,"O=C(COc1ccc(Cl)c(F)c1)NC12CCC(C(=O)NCc3ccc(Cl)cn3)(CC1)OC2 [Compound 342, 4-[2-(4-chloro-3-fluorophenoxy)acetamido]-N-[(5-chloropyridin-2-yl)methyl]-2-oxabicyclo[2.2.2]octane-1-carboxamide]",< 250
9,"O=C(COc1ccc(Cl)c(F)c1)NC12CCC(C(=O)NCc3ccc(OC(F)F)cn3)(C1)C2 [Compound 256, 4-[2-(4-chloro-3-fluorophenoxy)acetamido]-N-{[5-(difluoromethoxy)pyridin-2-yl]methyl}bicyclo[2.1.1]hexane-1-carboxamide]",1000 to 2000
10,"Cc1ccc(NC(=O)C23CC(NC(=O)COc4ccc(Cl)c(F)c4)(C2)C3)nc1 [Compound 299, 3-[2-(4-chloro-3-fluorophenoxy)acetamido]-N-(5-methylpyridin-2-yl)bicyclo[1.1.1]pentane-1-carboxamide]",< 250
11,"O=C(COc1ccc(Cl)c(F)c1)NC12CCC(C(=O)NCc3nc4ccccc4[nH]3)(CC1)CC2 [Compound 327, N-[(1H-benzimidazol-2-yl)methyl]-4-[2-(4-chloro-3-fluorophenoxy)acetamido]bicyclo[2.2.2]octane-1-carboxamide]",< 250
12,"O=C(COc1ccc(Cl)c(F)c1)NC12CCC(C(=O)NCc3ccc(C(F)F)cn3)(CC1)CC2 [Compound 346, 4-[2-(4-chloro-3-fluorophenoxy)acetamido]-N-{[5-(difluoromethyl)pyridin-2-yl]methyl}bicyclo[2.2.2]octane-1-carboxamide]",< 250
13,"O=C(COc1ccc(Cl)c(F)c1)NC12CCC(C(=O)NCc3ccc(C(F)(F)F)cc3)(CC1)C(O)C2 (stereo not shown) [Compound 110, 4-[2-(4-chloro-3-fluorophenoxy)acetamido]-2-hydroxy-N-{[4-(trifluoromethyl)phenyl]methyl}bicyclo[2.2.2]octane-1-carboxamide]",< 250
14,"O=C(O)Cn1c(CNC(=O)C23CC(NC(=O)COc4ccc(Cl)c(F)c4)(C2)C3)nc2cc(F)c(F)cc21 [Compound 328, {2-[({3-[2-(4-chloro-3-fluorophenoxy)acetamido]bicyclo[1.1.1]pentane-1-carbonyl}amino)methyl]-5,6-difluoro-1H-benzimidazol-1-yl}acetic acid]",1000 to 2000
15,"O=C(COc1ccc(Cl)c(F)c1)NC12CCC(C(=O)NCc3ccc(C(F)(F)F)cn3)(CC1)C[C@H]2O (single isomer, unassigned) [Compound 271]",< 250
16,"O=C(COc1ccc(Cl)c(F)c1)NC12CCC(C(=O)NCc3ccc(C(F)(F)F)cn3)(CC1)C[C@@H]2O (single isomer, unassigned) [Compound 272]",< 250
17,"O=C(COc1ccc(Cl)c(F)c1)NC12CCC(C(=O)Nc3ccc(C(F)(F)F)cn3)(CC1)C(O)C2 (stereo not shown) [Compound 316, 4-[2-(4-chloro-3-fluorophenoxy)acetamido]-2-hydroxy-N-[5-(trifluoromethyl)pyridin-2-yl]bicyclo[2.2.2]octane-1-carboxamide]",500 to 1000
18,"O=C(COc1ccc(Cl)c(F)c1)NC12CCC(C(=O)NCc3ccc(C(F)(F)F)cc3)(CC1)C[C@@H]2O (single isomer, unassigned) [Compound 270]",< 250
19,"O=C(COc1ccc(Cl)c(F)c1)NC12CC(C(=O)NCc3cnccn3)(C1)C2 [Compound 164, 3-[2-(4-chloro-3-fluorophenoxy)acetamido]-N-[(pyrazin-2-yl)methyl]bicyclo[1.1.1]pentane-1-carboxamide]",> 2000
20,"O=C(COc1ccc(Cl)c(F)c1)NC12CCC(C(=O)NCc3ccc(Cl)cc3)(CC1)CC2 [Compound 260, 4-[2-(4-chloro-3-fluorophenoxy)acetamido]-N-[(4-chlorophenyl)methyl]bicyclo[2.2.2]octane-1-carboxamide]",< 250
21,"Cc1cnc(NC(=O)C23CC(NC(=O)COc4ccc(Cl)c(F)c4)(C2)C3)cn1 [Compound 304, 3-[2-(4-chloro-3-fluorophenoxy)acetamido]-N-(5-methylpyrazin-2-yl)bicyclo[1.1.1]pentane-1-carboxamide]",< 250
22,"O=C(COc1ccc(Cl)c(F)c1)NC12CCC(C(=O)Nc3ccc(Cl)cc3)(C1)C2 [Compound 286, 4-[2-(4-chloro-3-fluorophenoxy)acetamido]-N-(4-chlorophenyl)bicyclo[2.1.1]hexane-1-carboxamide]",> 2000
23,"O=C(COc1ccc(Cl)c(F)c1)NC12CC(C(=O)Nc3ccc(C4CC4)cn3)(C1)C2 [Compound 306, 3-[2-(4-chloro-3-fluorophenoxy)acetamido]-N-(5-cyclopropylpyridin-2-yl)bicyclo[1.1.1]pentane-1-carboxamide]",< 250
24,"O=C(COc1ccc(Cl)c(F)c1)NC12CCC(C(=O)NCc3ccc(C(F)(F)F)cn3)(CC1)C(=O)N2 [Compound 333, 1-[2-(4-chloro-3-fluorophenoxy)acetamido]-3-oxo-N-{[5-(trifluoromethyl)pyridin-2-yl]methyl}-2-azabicyclo[2.2.2]octane-4-carboxamide]",< 250
25,"O=C(COc1ccc(Cl)c(F)c1)NC12CC(C(=O)Nc3ccc(OC(F)(F)F)cn3)(C1)C2 [Compound 287, 3-[2-(4-chloro-3-fluorophenoxy)acetamido]-N-[5-(trifluoromethoxy)pyridin-2-yl]bicyclo[1.1.1]pentane-1-carboxamide]",< 250
